Structures can show the parent of a compound that is named as a salt. Where two headings read alike, the source gives them in different places.
Key:
male rats = details: rat, in vivo, po
Protocol: Each of the following compound of the general formula in the present invention was administered orally to male rats to determine the acute toxicity (LD50 mg/kg).

[1] = tested on: jumping behavior induced by Methamphetamine and L-DOPA; assay: Activity for inhibiting jumping behavior in mouse induced by Methamphetamine and L-DOPA; assay type: in vivo, mouse (male, ddy-strain); details: read-out: ED50 value, inhibition of jumping behavior
Protocol: (B) Activity for inhibiting jumping behavior in mouse induced by Methamphetamine and L-DOPA
Individual male mice of ddy-strain having a body weight of 17 to 25 g were used. The mice were not fed for 24 hours. One test group consisted of 6 mice. A compound to be tested was administered orally. 40Minutes after the administration 4 mg/kg of Methamphetamine d-N-α-dimethylphenthylamine was intraperitonerally administered, further 15 minutes after the administration of Methamphetamine, 400 mg/kg of L-DOPA was intraperitonerally administered. 60 Minutes after the administration of L-DOPA, (3-(3,4-dihydroxyphenyl)alanine) the mouse was placed in a glass beaker of 2 liters capacity, and the number of jumping of the mouse was recorded. The activity for inhibiting jumping behavior of the test compound was determined as positive in case of number of jumping performed by the administered mouse counted 10 or less. While, the activity for inhibiting jumping behabior of the test compound was determined as negative in case the number of jumping performed by the administered mouse recorded over 10. The effective dosage (ED50 value: mg/kg) of the test compound which gives 3 mice were positive over 6 mice of one test group was calculated. The number of jumping performed by the mouse being administered with physiological saline solution as the reference was 150 to 200 per hour. (Cf. H. Lal, F. C. Colpaert, P. Laduron: European J. Pharmacol., 30, 113-116 (1975)).

epinephrine = assay: Activity for antagonizing epinephrine in mouse; assay type: in vivo, mouse (male, ddy strain); details: read-out: ED50 value, dose allowing half the animals to survive
Protocol: (C) Activity for antagonizing epinephrine in mouse
Individual male mice of ddy strain having 17 to 20 g of body weight were used. The mice were abstained from eating for 24 hours. One test group consist of 10 mice. A compound to be tested was administered orally. One hour after the administration, 40 mg/kg of epinephrine was intraperitonerally administered. […] All of 10 mice administered physiological saline solution as the reference group were dead within a few minutes after the administration of epinephrine. (Cf. Loew, E. R. and Micetich, A., J. Pharmacol. Exp. Ther., 93, 434-443 (1948)).

Halothane anesthesia = Halothane anesthesia increasing activity; assay type: in vivo, mouse (male, ddy-strain); details: 16 mg/kg oral, 1 hour before 4% Halothane for 3 minutes; righting reflex
Protocol: Male mice of ddy-strain a having about 20 g body weight were used. One test group consists of 10 mice. An aqueous Gummi Arabicum suspension of test compound (80 mg of a compound to be tested and 1 g of Gummi Arabicum/100 ml of physiological NaCl solution) was administered orally to each mouse at the dosage of 16 mg of test compound/kg body. One hour after the administration, each mouse was placed in gas respiration chamber (13×13×24 cm) and oxygen gas containing 4% of Halothane (2-brome-2-chloro-1,1,1-trifluoroethane) was flown into the chamber at the velocity of 2/min for 3 minutes. A mouse anaesthetized was taken out from the chamber and the time between the introduction of anesthesia to waking was measured by righting reflex as the index. To mice of control group, 1% Gummi Arabicum aqueous physiological solution was orally administered at the dosage of 0.1 ml/kg body.

palpebral ptosis = assay: Palpebral ptosis test in mouse; assay type: in vivo, mouse (male, ddy-strain); details: 64 mg/kg oral, 1 hour; score 0 (wide open eyes) to 8 (eyes completely closed); mean of 10 mice
Protocol: (D) Activity of palpebral ptosis test in mouse
Individual male mice of ddy-strain having 18 to 20 g of body weight were used. The mice were abstained from eating for 24 hours. One test group consists of 10 mice. […] One hour after the administration, the state of palpebral ptosis of the mouse were observed and evaluated on the basis of the following score system. The mean value was calculated from the scores of 10 mice.
Score Degree of palpebral ptosis
8 Eyes completely closed.

[2] = oral, Methamphetamine 4 mg/kg i.p. and L-DOPA 400 mg/kg i.p., positive = 10 or fewer jumps
[3] = oral, 1 hour before epinephrine 40 mg/kg i.p., survival at 24 hours

| Structure (SMILES) | Acute toxicity (LD50) (male rats) [mg/kg] | ED50 [1, 2] [mg/kg] | ED50 (epinephrine; [3]) [mg/kg] | further results |
| --- | --- | --- | --- | --- |
| O=C1CCc2cc(C=CCN3CCN(c4cccc(Cl)c4)CC3)ccc2N1 [Compound 8, 6-{3-[4-(3-Chlorophenyl)-1-piperazinyl]-1-propenyl}-3,4-dihydrocarbostyril] | 500 | 1.02 | – | – |
| O=C1CCc2cc(C(=O)CCCN3CCN(c4ccccc4)CC3)ccc2N1 [Compound 2, 6-[1-Oxo-4-(4-phenyl-1-piperazinyl)butyl]-3,4-dihydrocarbostyril.monohydrochloride] | 500 | 1.52 | 4.02 | Time (minutes) between introduction of anesthesia to waking (Halothane anesthesia): 11.5 min; Score obtained (Mean value), degree of palpebral ptosis (palpebral ptosis): 4.5 |
| O=C1CCc2cc(CCCN3CCN(c4ccccc4)CC3)ccc2N1 [Compound 18, 6-[3-(4-Phenyl-1-piperazinyl)propyl]-3,4-dihydrocarbostyril] | 500 | 0.34 | 0.21 | – |
| COc1ccccc1N1CCN(CC=Cc2ccc3c(c2)CCC(=O)N3)CC1 [Compound 19] | 500 | 0.79 | 0.1 | – |
| O=C1CCc2cc(C(=O)CCCN3CC=C(c4ccc(Cl)cc4)CC3)ccc2N1 [Compound 25, 6-{1-Oxo-4-[4-(4-chlorophenyl)-1,2,5,6-tetrahydropyridyl]butyl}-3,4-dihydrocarbostiryl] | – | – | – | ED50 ([1]; po): 9.56 mg/kg |
| COc1ccccc1C1CCN(CCCc2ccc3c(c2)CCC(=O)N3)CC1.O=C(O)C(=O)O [Compound 29, 6-{3-[4-(2-Methoxyphenyl)-1-piperidyl]-propyl}-3,4-dihydrocarbostyril monooxalate] | – | 2.01 | – | – |
| CCC(C(O)c1ccc2[nH]c(=O)ccc2c1)N1CCN(c2cccc(Cl)c2)CC1 (stereo not shown) [Compound 32, 6-{1-Hydroxy-2-[4-(3-chlorophenyl)-1-piperazinyl]butyl}carbostyril] | – | 4.86 | – | – |
| Cc1cccc(N2CCN(CCC(O)c3ccc4c(c3)CCC(=O)N4)CC2)c1C (stereo not shown) [Compound 6, 6-{1-Hydroxy-3-[4-(2,3-dimethylphenyl)-1-piperazinyl]-propyl}-3,4-dihydrocarbostryril] | 500 | – | – | Time (minutes) between introduction of anesthesia to waking (Halothane anesthesia): 8.2 min |
| CN(C)CCCN1c2ccccc2Sc2ccc(Cl)cc21 [Chlorpromazine, 2-chloro-N,N-dimethyl-10H-phenothiazine-10-propanamine, reference compound] | – | – | – | ED50 (epinephrine; po, 24 h): 10.6 mg/kg; ED50 ([1]; po): 7.6 mg/kg |
| O=C1CCc2cc(C(O)CCCN3CCN(c4cccc(Cl)c4)CC3)ccc2N1 (stereo not shown) [Compound 5, 6-{1-Hydroxy-4-[4-(3-chlorophenyl)-1-piperazinyl]butyl}-3,4-dihydrocarbostyril] | 500 | 1.95 | – | Time (minutes) between introduction of anesthesia to waking (Halothane anesthesia): 13.0 min |
| CCOc1ccccc1N1CCN(CCC=Cc2ccc3c(c2)CCC(=O)N3)CC1 [Compound 12, 6-{4-[4-(2-Ethoxyphenyl)-1-piperazinyl]-1-butenyl}-3,4-dihydrocarbostyril] | – | 0.056 | 0.005 | – |
| O=c1ccc2cc(CCCCN3CCN(c4ccccc4)CC3)ccc2[nH]1 [Compound 30, 6-[4-(4-Phenyl-1-piperazinyl)butyl]-carbostyril] | 500 | 0.56 | – | – |
| O=C1CCc2cc(C(=O)CCCN3CC=C(c4ccccc4)CC3)ccc2N1 [Compound 28, 6-[1-Oxo-4-(4-phenyl-1,2,5,6-tetrahydropyridyl)butyl]-3,4-dihydrocarbostyril] | – | – | – | ED50 ([1]; po): 8.89 mg/kg |
| COc1ccccc1C1=CCN(CC=Cc2ccc3c(c2)CCC(=O)N3)CC1 [Compound 27, 6-{3-[4-(2-Methoxyphenyl)-1,2,5,6-tetrahydropyridyl]-1-propenyl}-3,4-dihydrocarbostyril monooxalate] | – | – | – | ED50 ([1]; po): 1.25 mg/kg |
| O=C1CCc2cc(C(=O)CCN3CCN(c4ccccc4)CC3)ccc2N1 [Compound 1, 6-[1-Oxo-3-(4-phenyl-1-piperazinyl)propyl]-3,4-dihydrocarbostyril] | 500 | 1.35 | 3.03 | Time (minutes) between introduction of anesthesia to waking (Halothane anesthesia): 13.3 min; Score obtained (Mean value), degree of palpebral ptosis (palpebral ptosis): 1.67 |
| O=C1CCc2cc(C=CCN3CCN(c4ccc(Cl)cc4)CC3)ccc2N1 [Compound 13, 6-{3-[4-(4-chlorophenyl)-1-piperazinyl]-1-propenyl}-3,4-dihydrocarbostyril] | 500 | 4.16 | – | – |
| CCC(C(=O)c1ccc2[nH]c(=O)ccc2c1)N1CCN(c2cccc(Cl)c2)CC1 (stereo not shown) [Compound 4, 6-{1-Oxo-2-[4-(3-chlorophenyl)-1-piperazinyl]butyl}-carbostyril] | – | – | – | Time (minutes) between introduction of anesthesia to waking (Halothane anesthesia): 9.7 min; ED50 ([1]; po): 4.05 mg/kg; Score obtained (Mean value), degree of palpebral ptosis (palpebral ptosis): 2.33 |
| CCOc1ccccc1N1CCN(CCC=Cc2ccc3[nH]c(=O)ccc3c2)CC1 [Compound 31, 6-{4-[4-(2-Ethoxyphenyl)-1-piperazinyl]-1-butenyl}carbostyril] | – | 0.14 | – | – |
| COc1ccccc1N1CCN(CCCc2ccc3c(c2)CCC(=O)N3)CC1 [Compound 17, 6-{3-[4-(2-Methoxyphenyl)-1-piperazinyl] -propyl}-3,4-dihydrocarbostyril] | 500 | – | 0.29 | – |
| CCOc1ccccc1N1CCN(CCCCc2ccc3c(c2)CCC(=O)N3)CC1 [Compound 15, 6-{4-[4-(2-Ethoxyphenyl)-1-piperazinyl]-butyl}-3,4-dihydrocarbostyril] | 500 | 0.39 | 0.71 | – |
| Cc1ccc(C2=CCN(CCC(=O)c3ccc4c(c3)CCC(=O)N4)CC2)cc1 [Compound 26, 6-{1-Oxo-3-[4-(4-methylphenyl)-1,2,5,6-tetrahydropyridyl]propyl}-3,4-dihydrocarbostiryl] | – | – | – | ED50 ([1]; po): 10.3 mg/kg |
| O=C1CCc2cc(CCCCN3CCN(c4ccccc4Cl)CC3)ccc2N1 [Compound 14, 6-{4-[4-(2-Chlorophenyl)-1-piperazinyl]-butyl}-3,4-dihydrocarbostyril] | – | 3.23 | – | – |
| O=C1CCc2cc(C=CCCN3CCN(c4ccccc4)CC3)ccc2N1 [Compound 11, 6-[4-(4-Phenyl-1-piperazinyl)-1-butenyl]-3,4-dihydrocarbostyril] | 500 | 1.6 | 4 to 8 | – |
| CCOc1ccccc1N1CCN(CCCc2ccc3c(c2)CCC(=O)N3)CC1 [Compound 16, 6-{3-[4-(2-Ethoxyphenyl)-1-piperazinyl]-propyl}-3,4-dihydrocarbostyril] | 500 | 0.24 | 0.02 | – |
| CCOc1ccccc1N1CCN(CC=Cc2ccc3c(c2)CCC(=O)N3)CC1 [Compound 9, 6-{3-[4-(2-Ethoxyphenyl)-1-piperazinyl]-1-propenyl}-3,4-dihydrocarbostyril] | 500 | 0.12 | 0.005 | – |
| O=C1CCc2cc(C(=O)CCN3CCN(c4cccc(Cl)c4)CC3)ccc2N1 [Compound 7, 6-{1-Oxo-3-[4-(3-chlorophenyl)-1-piperazinyl]-propyl}-3,4-dihydrocarbostyril.monohydrochloride] | 500 | 1.34 | – | Score obtained (Mean value), degree of palpebral ptosis (palpebral ptosis): 1.33 |
| Cc1cccc(N2CCN(CC=Cc3ccc4c(c3)CCC(=O)N4)CC2)c1 [Compound 10, 6-{3-[4-(3-Methylphenyl)-1-piperazinyl]-1-propenyl}-3,4-dihydrocarbostyril] | 500 | 6.02 | – | – |

Source: US4619932A, “Novel carbostyril derivatives, process for producing thereof and pharmaceutical composition containing the same” (Otsuka Pharmaceutical Co., Ltd., priority 1980, dated 1986)
